Assay results published in PubChem BioAssay AID179 (DTP/NCI, 2004).
“And” between values parts separate entries of the source, which are not always exact repeats. Equal values may be shown once. The source made the active and inactive calls.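 The calls were made as follows: active = compounds giving half or more protection of infected cells from virus-caused growth loss, again on retest; inactive = the rest.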 Where a SMILES comes first, the peptide text is derived from it. [ ]: non-standard residue; d: D form. The star is where a group is joined. Ac5c = NC1(C(=O)O)CCCC1; Cbz = O=C(OCc1ccccc1)*; Boc = CC(C)(C)OC(=O)*; tBu = CC(C)(C)*

System: CEM cells HIV-1 protection, formazan growth assay
Test: NCI AIDS Antiviral Assay
Details: for IC50: measured here: growth of uninfected CEM cells
Outline: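 Human CEM cells, uninfected and HIV-1-infected, received five drug concentrations, and growth was read by soluble formazan assay. Compounds giving at least 50% protection were retested; reproducible 100% protection defined confirmed active.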

Compound | EC50 | IC50 | outcome
COc1ccc(-c2nc3c(nc2-c2ccc(OC)cc2)N(C)S(=O)(=O)N=C3N)cc1 | > 200 µM | 11.2 µM | –
Cn1/c(=N\N=C2\C=C3CCCCC3(C)CC2)sc2ccccc21 (configuration not stated) | > 200 µM | 155 µM | –
COC1=CC2(OC)CCC1C1=C2C(=O)c2c(O)cccc2C1=O (configuration not stated) | – | – | inactive
CCN=C(NC(=O)c1ccccc1F)SCSC(=NCC)NC(=O)c1ccccc1F | > 200 µM | 55 µM | –
O=C(c1ccccc1)c1ccsc1C(=O)c1ccccc1 | > 200 µM | 36.3 µM | –
CN(C)CCNC(=O)Cn1ccc(=O)c2cc([N+](=O)[O-])ccc21 | > 200 µM | > 200 µM | –
[N-]=[N+]=C1N=CN=C1c1ncn[nH]1 | > 200 µM | 4.07 µM | –
COc1ccc(C(=O)/C=C/c2ccc(OCCSCCCCCCCCCCSCCOc3ccc(/C=C/C(=O)c4ccc(OC)c(OC)c4)cc3)cc2)cc1OC | – | – | inactive
COC(=O)C1(NC(=O)C(Cc2ccccc2)NC(=O)C(NC(=O)C(CCCCNC(=O)OC(C)(C)C)NC(=O)C(Cc2c[nH]c3ccccc23)NC(=O)C(Cc2ccccc2)NC(=O)OCc2ccccc2)C(C)OC(C)(C)C)CCCC1 (configuration not stated) (Cbz-FWK(Boc)T(tBu)F[Ac5c]-OMe; configuration not given here) | > 200 µM | 115 µM | –
CC(=C\c1ccccc1)/C=C(\C#N)C(N)=O | > 200 µM | 97.7 µM | –
Nc1ccc(N)c(N2C(=O)c3ccccc3C2=O)c1 | > 200 µM | > 200 µM | –
Cc1cccc(N2C(c3ccccc3)c3ccc(C)cc3NS2=O)c1 (configuration not stated) | > 257 µM | 151 µM | –
Cc1ccc(NC(=O)C(=O)C(C(=O)c2ccc3ccccc3c2)C2OC(=O)c3ccccc32)cc1C (configuration not stated) | > 53.7 µM | 25.7 µM | –
NNC(N)Nc1ccccc1 (configuration not stated) | > 200 µM | > 200 µM | –
O=c1[nH]c(=O)n(C2CC(O)C(CO)O2)cc1NN=NCCCc1ccccc1 (configuration not stated) | > 200 µM | > 200 µM | –
CN(C(=O)C1=CCCCCC1)c1ccccc1I | > 200 µM | 38.9 µM | –
C=CCN1CCC(c2cc(C(=O)OCC)[nH]c2-c2cc(C)no2)C1=O (configuration not stated) | > 200 µM | > 200 µM | –
CN(C)C(=N)CSS(=O)(=O)O | 120 µM | 182 µM | –
Cc1cc(=O)n2nc(CCl)sc2n1 | > 200 µM | 9.33 µM | –
Cc1ccc(Cc2n[nH]c(=O)n2N2C(=O)c3ccccc3C2=O)cc1 | > 200 µM | > 200 µM | –
CCC1=C(c2cccc(OC(C)=O)c2)C(C)c2ccc(OC(C)=O)cc21 (configuration not stated) | > 200 µM | 7.41 µM | –
COC(=O)CCCC(=O)C(=Nc1c(Cl)cccc1Cl)NNc1ccc(Cl)cc1 | > 200 µM | 35.5 µM | –

Compound | EC50 | IC50 | outcome
O=C(O)c1ccc(OCc2nc3cc(C(F)(F)F)ccc3nc2-c2ccccc2)cc1 | > 200 µM | 33.9 µM | –
COc1ccc2c(c1)CCC1=C2CCS1(=O)=O | > 200 µM | > 200 µM | –
CCOC(=O)c1ccc(NCc2ccc3nc(OC)c(OC)nc3c2)cc1 | > 100 µM | > 100 µM | –
COc1ccc(-c2oc3cc(OC)ccc3c(=O)c2O)cc1 | > 200 µM | > 200 µM | –
Cc1c(C(=O)C/C(=N/NC(=O)c2ccccc2)C(=O)Nc2ccc(Cl)cc2)[n+](=O)c2ccccc2n1[O-] | > 34.7 µM | 20.4 µM | –
CCOP(=O)(C=C=C(C)C)OCC | > 200 µM | > 200 µM | –
COc1ccc(C(C)=C(C#N)C#N)cc1 | > 182 µM | > 182 µM | –
N=C(N)c1csc([C@@H]2O[C@H](CO)[C@@H](O)[C@H]2O)n1 | – | – | inactive
NS(=O)(=O)c1ccc(NC(=O)c2cccc3c(=O)c4ccccc4[nH]c23)cc1 | – | – | inactive
O=[N+]([O-])C(/C=C(\Cl)n1nnc2ccccc21)=C(/Cl)n1nnc2ccccc21 | > 200 µM | > 200 µM | –
FC1OC2OC1C(OCc1ccccc1)C(OCc1ccccc1)C2OCc1ccccc1 (configuration not stated) | > 6.03 µM | > 6.03 µM | –
O=C1[C@H]2ON(c3ccccc3)C(c3ccccc3)[C@H]2C(=O)N1c1ccc(Cc2ccc(N3C(=O)[C@@H]4ON(c5ccccc5)C(c5ccccc5)[C@@H]4C3=O)cc2)cc1 (some centres not stated) | > 13.2 µM | > 13.2 µM | –
COc1cccc2c1C(c1ccc3ccccc3c1)OC2=O (configuration not stated) | > 46.8 µM | 25.1 µM | –
O=C(O)C1=C(C(=O)O)C2CCC1C2 | > 200 µM | > 200 µM | –
O=C1C(=O)c2ccccc2C(O)=C1C(/C=C/c1ccccc1)C1=C(O)c2ccccc2C(=O)C1=O | > 200 µM | 9.55 µM | –
C=C1C2Oc3ccccc3C1N(c1ccccc1)O2 (configuration not stated) | – | – | inactive
CCN(CC)CCC(=O)Nc1ccc2c(c1)C(=O)c1ccc(NC(=O)CCN(CC)CC)cc1C2=O | > 200 µM | 3.39 µM | –
CC1=C(C)C(=O)C(C2=C(C3=CC(=O)C(C)=C(C)C3=O)C(=O)C(C)=C(C)C2=O)=CC1=O | > 20 µM | 1.02 µM | –
CC1(C)O[C@H]2[C@H](O)C[C@](O)(CO)C[C@H]2O1 | – | – | inactive
O=C(CN1CCNCCN(CC(=O)N2CCCCC2)CCNCC1)N1CCCCC1 | > 200 µM | 10.5 µM | –
C[C@]12CCC(OS(=O)(=O)O)CC1=CCC1C2CC[C@@]2(C)C1CC[C@@H]2C(=O)O (some centres not stated) | > 427 µM | 417 µM | –
Cc1cccc(NC(=S)NNC(=O)c2cc(-c3ccccc3)nc3ccccc23)c1 | > 200 µM | 24 µM | –

Compound | EC50 | IC50 | outcome
Fc1ccc2c(c1)CN(CCN1COc3ccc(F)cc3C1)CO2 | > 8.13 µM | > 8.13 µM | –
C[N+]12CCCCC1CC2 (configuration not stated) | 47.9 µM | 355 µM | –
Cc1ccc(C(=O)Nc2ccc(CP(=O)(O)O)cc2CP(=O)(O)O)cc1NC(=O)Nc1cc(C(=O)Nc2ccc(CP(=O)(O)O)cc2CP(=O)(O)O)ccc1C | > 200 µM | > 200 µM | –
CN(C)C(=O)OC(Cn1cncn1)c1ccc(Cl)cc1Cl (configuration not stated) | > 537 µM | 275 µM | –
c1ccc(C2=NC3OC2c2ccccc23)cc1 (configuration not stated) | > 200 µM | > 200 µM | –
COc1cc(OC)nc(Nc2c(C#N)c3nc4ccccc4n3c3ccccc23)n1 | > 100 µM | > 100 µM | –
O/N=C1\CCc2cc3c(cc21)CCC3 | > 200 µM | 155 µM | –
O=C1C=Cc2cc(Br)ccc2C12CCc1c(O)ccc3cc(Br)cc2c13 (configuration not stated) | – | – | inactive
CSc1nc(N)c(NC2OC(CO)C(O)C2O)c(=O)[nH]1 (configuration not stated) | 81.3 µM and > 200 µM | 110 µM and 112 µM | –
c1ccc2c(c1)cc1n2CC2CN=NC12 (configuration not stated) | > 182 µM | > 182 µM | –
N#Cc1cc([N+](=O)[O-])ccc1NC(=O)C(=O)Nn1c(=S)[nH]c2ccccc2c1=O | – | – | inactive
c1ccc2c(c1)nc1n2CC2(CS1)CSc1nc3ccccc3n1C2 | – | – | inactive
CC1(c2nc3ccccc3[nH]2)CCC(CO)C(C)(C)O1 (configuration not stated) | > 200 µM | > 200 µM | –
O=[N+]([O-])C(=C1c2ccccc2-c2ccccc21)[N+](=O)[O-] | > 135 µM | 18.2 µM | –
CC(Cc1ccccc1)NN(CS(=O)(=O)O)CS(=O)(=O)O (configuration not stated) | – | – | inactive
COc1cc(OC)c(/C=C\c2ccnc3ccccc23)c(OC)c1 | > 200 µM | 8.51 µM | –
CC(=O)N/N=C(\N)c1nc2c(n3nc(C)nc13)CCCC2 | > 200 µM | 91.2 µM | –
COC(=O)/C(=N\NC(N)=O)C(C(=O)C(=O)Nc1ccccc1C(=O)OC)c1nc2ccc(C(=O)c3ccccc3)cc2[nH]c1=O (configuration not stated) | – | – | inactive
COc1ccc2c(c1)CC[C@@H]1C2CC[C@]2(C)OC(=O)CCC12 (some centres not stated) | > 87.1 µM | 12 µM | –
COC(=O)C1(Cc2ccccc2)Cc2ccccc2C1=O (configuration not stated) | > 200 µM | 85.1 µM | –
N#C/C(=C\c1ccc(-c2ccccc2)cc1)c1ccccc1 | > 200 µM | 170 µM | –
CC(=O)OC(C)(C)/C=C/C(=O)[C@](C)(O)[C@H]1[C@H](O)C[C@@]2(C)[C@@H]3CC=C4[C@@H](C[C@H](O)[C@H](O)C4(C)C)[C@]3(C)C(=O)C[C@]12C | > 0.2 µM | 0.0912 µM | –

Compound | EC50 | IC50 | outcome
Cc1cc(=O)[nH]c2c3c(ccc12)OC(C)(C)C=C3 | > 200 µM | 3.72 µM | –
N=c1c2ncn(C3OC(CO)CC3F)c2ncn1O (configuration not stated) | – | – | inactive
CC(=O)c1c(O)cc(O)cc1-c1cc(=O)c2c(O)ccc(C(C)=O)c2o1 | > 200 µM | 170 µM | –
CC1(C)SC2c3ccccc3C(=O)N2C1C(=O)O (configuration not stated) | > 955 µM | > 955 µM | –
CCOC(=O)C(CCCC(C(=O)OCC)C(=O)OCC)C(=O)OCC | > 200 µM | > 200 µM | –
C=C1C(O)O[C@@H]2O[C@@]3(C)CC[C@H]4[C@H](C)CC[C@@H]1[C@@]24OO3 (some centres not stated) | > 200 µM | 8.71 µM | –
N#Cc1nc(C2SCCCS2)oc1N | > 200 µM | > 200 µM | –
O=[N+]([O-])/C=C/c1cn(CCCCCn2cc(/C=C/[N+](=O)[O-])c3ccccc32)c2ccccc12 | > 200 µM | 2.63 µM | –
Cn1c(=O)n2n(c1=O)C1C3C4C5C3C13COCC53C42 (configuration not stated) | – | – | inactive
N#C/C(=C\N1C(=O)/C(=C/c2cccc([N+](=O)[O-])c2)SC1=S)c1nc2ccccc2s1 | > 200 µM | 29.5 µM | –
O=C1NC(N2CCCC(CO)C2)=N/C1=C\c1cccs1 (configuration not stated) | > 200 µM | > 200 µM | –
CN(C)C(=O)OCOP(=O)(OCOC(=O)N(C)C)OCC1CCC(n2ccc(=O)[nH]c2=O)O1 (configuration not stated) | > 200 µM | 93.3 µM | –
O=C1CC(C(COCc2ccccc2)OCc2ccccc2)CC(=O)N1 (configuration not stated) | > 200 µM | > 200 µM | –
O=C(O)c1ccc(Nc2nc3ccc(C(F)(F)F)cc3nc2C(=O)O)cc1 | > 200 µM | > 200 µM | –
CC(=O)N1CC2Nc3ccccc3C2CC1CO (configuration not stated) | – | – | inactive
Cc1ccc(C)c(N2C(=O)C(=O)C(c3nc4ccccc4s3)C(=Nc3cccc4c(=O)[nH][nH]c(=O)c34)C2=O)c1 (configuration not stated) | – | – | inactive
O=C(Nc1sccc1S(=O)(=O)c1ccc(Cl)cc1)C(F)(F)F | > 200 µM | 9.55 µM | –
COC1/C=C\C=C(/C)C(=O)NC2=CC(=O)C=C(C2=O)C(OC)C(C)CC(OC)C(OC)C(C)/C=C(/C)C1OC(N)=O (configuration not stated) | > 63.1 µM | 0.407 µM | –
CCC1(N=[N+]=[N-])C(=O)c2ccccc2N(C)C1=O (configuration not stated) | > 200 µM | > 200 µM | –
O=c1[nH]c(F)nc2c1ncn2C1OC(CO)C(O)C1O (configuration not stated) | > 200 µM | > 200 µM | –
